Data on 18 compounds can be found in patent US20250241926A1, “HETEROCYCLIC COMPOUNDS FOR USE IN THE TREATMENT OF CANCER” (ARTIOS PHARMA LIMITED, priority 2021, published 2025).

The assay deals with T1, Human Polθ polymerase domain (aa1820-2590) (Homo sapiens, UniProt O75417).
T1 construct: Human Polθ polymerase domain (aa1820-2590) was expressed in E. Coli; made in house; host or cells: E. coli
T1 sequence (O75417 1820-2590): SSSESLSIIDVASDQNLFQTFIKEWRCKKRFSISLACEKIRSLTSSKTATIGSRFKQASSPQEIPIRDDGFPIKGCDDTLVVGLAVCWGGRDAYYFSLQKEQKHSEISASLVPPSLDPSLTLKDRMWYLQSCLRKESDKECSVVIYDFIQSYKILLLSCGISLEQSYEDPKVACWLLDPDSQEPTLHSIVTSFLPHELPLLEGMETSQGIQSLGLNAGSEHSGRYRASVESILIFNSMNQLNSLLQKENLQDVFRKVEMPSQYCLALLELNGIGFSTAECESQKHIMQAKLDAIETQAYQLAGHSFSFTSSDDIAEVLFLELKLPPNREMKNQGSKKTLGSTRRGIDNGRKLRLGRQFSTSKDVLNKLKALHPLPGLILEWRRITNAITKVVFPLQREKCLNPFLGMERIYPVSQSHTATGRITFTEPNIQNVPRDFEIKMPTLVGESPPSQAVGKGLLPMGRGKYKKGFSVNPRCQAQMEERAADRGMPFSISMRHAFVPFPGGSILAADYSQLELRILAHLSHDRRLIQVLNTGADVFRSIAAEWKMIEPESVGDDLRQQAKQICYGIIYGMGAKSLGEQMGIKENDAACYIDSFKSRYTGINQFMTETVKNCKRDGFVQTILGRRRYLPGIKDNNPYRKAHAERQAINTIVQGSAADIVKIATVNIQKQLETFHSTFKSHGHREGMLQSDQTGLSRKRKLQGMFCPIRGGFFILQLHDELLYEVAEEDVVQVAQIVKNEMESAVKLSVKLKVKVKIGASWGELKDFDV
Description: Polθ Polymerase Domain Kinact/Kl Assay (PicoGreen). Format: biochemical. To be noted: covalent inhibitors, kobs vs [I] fit, 0.8 nM Polθ, 100 nM DNA substrate, read-out: Kinact/KI. The gist of the method:
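E. coli-expressed enzyme (0.8 nM final) was run with 100 nM annealed DNA substrate and dNTPs in Tris pH 7.5 buffer (1% DMSO), with EDTA stops across a time course up to 60 min. Synthesised DNA was read by PicoGreen fluorescence. kobs per inhibitor concentration was fitted from the time courses, and Kinact and KI came from the kobs-vs-[I] plot.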

SMILES strings stand for the structures.

With `Cc1cc(C(F)(F)F)c(C#N)c(N[C@H]2CCN(CCN(C)C(=O)C3CN(C(=O)/C=C/CN(C)C)C3)c3c(F)cccc3N(C)C2=O)n1` [Example 29, (S,E)-N-(2-(4-((3-Cyano-6-methyl-4-(trifluoromethyl)pyridin-2-yl)amino)-10-fluoro-6-methyl-5-oxo-3,4,5,6-tetrahydrobenzo[b][1,4]diazocin-1(2H)-yl)ethyl)-1-(4-(dimethylamino)but-2-enoyl)-N-methylazetidine-3-carboxamide], the kinact/KI stood at 1.2e+06 M⁻¹ s⁻¹.
The same measure for `Cc1cc(C(F)(F)F)c(C#N)c(N[C@H]2CCN(CCN(C)C(=O)[C@@H]3CCN(C(=O)/C=C/CN(C)C)C3)c3ccccc3N(C)C2=O)n1` [Example 30, (R)—N-(2-((S)-4-((3-Cyano-6-methyl-4-(trifluoromethyl)pyridin-2-yl)amino)-6-methyl-5-oxo-3,4,5,6-tetrahydrobenzo[b][1,4]diazocin-1(2H)-yl)ethyl)-1-((E)-4-(dimethylamino)but-2-enoyl)-N-methylpyrrolidine-3-carboxamide]: 690000 M⁻¹ s⁻¹; for `Cc1cc(C(F)(F)F)c(C#N)c(N[C@H]2CCN(CCN(C)C(=O)C3CN(C(=O)/C=C/CN(C)C)C3)c3ccccc3N(C)C2=O)n1` [Example 31, (S,E)-N-(2-(4-((3-Cyano-6-methyl-4-(trifluoromethyl)pyridin-2-yl)amino)-6-methyl-5-oxo-3,4,5,6-tetrahydrobenzo[b][1,4]diazocin-1(2H)-yl)ethyl)-1-(4-(dimethylamino)but-2-enoyl)-N-methylazetidine-3-carboxamide]: 920000 M⁻¹ s⁻¹; for `C=CC(=O)N1CCN(CC(O)CN2CC[C@H](Nc3nc(C)cc(C(F)(F)F)c3C#N)C(=O)N(C)c3ccccc32)CC1` (stereo partly drawn) [Example 35, 2-(((3S)-6-(3-(4-Acryloylpiperazin-1-yl)-2-hydroxypropyl)-1-methyl-2-oxo-1,2,3,4,5,6-hexahydrobenzo[b][1,4]diazocin-3-yl)amino)-6-methyl-4-(trifluoromethyl)nicotinonitrile]: 340000 M⁻¹ s⁻¹.
The same measure for `C=CC(=O)N1CC2(CN(CC(O)CN3CC[C@H](Nc4nc(C)cc(C(F)(F)F)c4C#N)C(=O)N(C)c4ccccc43)C2)C1` (stereo partly drawn) [Example 36, 2-(((3S)-6-(3-(6-Acryloyl-2,6-diazaspiro[3.3]heptan-2-yl)-2-hydroxypropyl)-1-methyl-2-oxo-1,2,3,4,5,6-hexahydrobenzo[b][1,4]diazocin-3-yl)amino)-6-methyl-4-(trifluoromethyl)nicotinonitrile]: 360000 M⁻¹ s⁻¹; for `C=CC(=O)N1CCN(CCCN2CC[C@H](Nc3nc(C)cc(C(F)(F)F)c3C#N)C(=O)N(C)c3cccc(F)c32)CC1` [Example 37, (S)-2-((6-(3-(4-Acryloylpiperazin-1-yl)propyl)-7-fluoro-1-methyl-2-oxo-1,2,3,4,5,6-hexahydrobenzo[b][1,4]diazocin-3-yl)amino)-6-methyl-4-(trifluoromethyl)nicotinonitrile]: 340000 M⁻¹ s⁻¹.
With `C=CC(=O)N1CCN(CCCN2CC[C@H](Nc3nc(C)cc(C(F)(F)F)c3C#N)C(=O)N(C)c3ccc(F)cc32)CC1` [Example 38, (S)-2-((6-(3-(4-Acryloylpiperazin-1-yl)propyl)-8-fluoro-1-methyl-2-oxo-1,2,3,4,5,6-hexahydrobenzo[b][1,4]diazocin-3-yl)amino)-6-methyl-4-(trifluoromethyl)nicotinonitrile], the kinact/KI was 480000 M⁻¹ s⁻¹.
Take `Cc1cc(C(F)(F)F)c(C#N)c(N[C@H]2CCN(CCCN3CCN(C(=O)/C=C/CN(C)C)CC3)c3cc(F)ccc3N(C)C2=O)n1` [Example 39, (S,E)-2-((6-(3-(4-(4-(Dimethylamino)but-2-enoyl)piperazin-1-yl)propyl)-8-fluoro-1-methyl-2-oxo-1,2,3,4,5,6-hexahydrobenzo[b][1,4]diazocin-3-yl)amino)-6-methyl-4-(trifluoromethyl)nicotinonitrile]: the kinact/KI amounted to 1e+06 M⁻¹ s⁻¹.
With `Cc1cc(C(F)(F)F)c(C#N)c(N[C@H]2CCN(CCCOC3CN(C(=O)/C=C/CN(C)C)C3)c3c(F)cccc3N(C)C2=O)n1` [Example 40, (S,E)-2-((6-(3-((1-(4-(Dimethylamino)but-2-enoyl)azetidin-3-yl)oxy)propyl)-7-fluoro-1-methyl-2-oxo-1,2,3,4,5,6-hexahydrobenzo[b][1,4]diazocin-3-yl)amino)-6-methyl-4-(trifluoromethyl)nicotinonitrile], the kinact/KI came out at 3e+06 M⁻¹ s⁻¹.
`Cc1cc(C(F)(F)F)c(C#N)c(N[C@H]2CCN(CCCOC3CN(C(=O)/C=C/CN(C)C)C3)c3ccccc3N(C)C2=O)n1` [Example 41, (S, E)-2-((6-(3-((1-(4-(Dimethylamino)but-2-enoyl)azetidin-3-yl)oxy)propyl)-1-methyl-2-oxo-1,2,3,4,5,6-hexahydrobenzo[b][1,4]diazocin-3-yl)amino)-6-methyl-4-(trifluoromethyl)nicotinonitrile]: the kinact/KI worked out at 1.4e+06 M⁻¹ s⁻¹.
For `Cc1cc(C(F)(F)F)c(C#N)c(N[C@H]2CCN(CCCOC3CN(C(=O)/C=C/CN(C)C)C3)c3cc(F)ccc3N(C)C2=O)n1` [Example 42, (S,E)-2-((6-(3-((1-(4-(Dimethylamino)but-2-enoyl)azetidin-3-yl)oxy)propyl)-8-fluoro-1-methyl-2-oxo-1,2,3,4,5,6-hexahydrobenzo[b][1,4]diazocin-3-yl)amino)-6-methyl-4-(trifluoromethyl)nicotinonitrile] the value was 820000 M⁻¹ s⁻¹; for `Cc1cc(C(F)(F)F)c(C#N)c(N[C@H]2CCN(CCCOC3CN(C(=O)/C=C/CN(C)C)C3)c3cc(F)cc(F)c3N(C)C2=O)n1` [Example 43, (S,E)-2-((6-(3-((1-(4-(Dimethylamino)but-2-enoyl)azetidin-3-yl)oxy)propyl)-8,10-difluoro-1-methyl-2-oxo-1,2,3,4,5,6-hexahydrobenzo[b][1,4]diazocin-3-yl)amino)-6-methyl-4-(trifluoromethyl)nicotinonitrile], 900000 M⁻¹ s⁻¹; for `Cc1cc(C(F)(F)F)c(C#N)c(N[C@H]2CCN(CCCOC3CN(C(=O)/C=C/CN(C)C)C3)c3c(Cl)cccc3N(C)C2=O)n1` [Example 44, (S,E)-2-((7-Chloro-6-(3-((1-(4-(dimethylamino)but-2-enoyl)azetidin-3-yl)oxy)propyl)-1-methyl-2-oxo-1,2,3,4,5,6-hexahydrobenzo[b][1,4]diazocin-3-yl)amino)-6-methyl-4-(trifluoromethyl)nicotinonitrile], 1.3e+06 M⁻¹ s⁻¹.
For the compound `Cc1cc(C(F)(F)F)c(C#N)c(N[C@H]2CCN(CCOC3CCN(C(=O)/C=C/CN(C)C)CC3)c3c(F)cccc3N(C)C2=O)n1` [Example 49, (S,E)-2-((6-(2-((1-(4-(Dimethyl-amino)but-2-enoyl)piperidin-4-yl)oxy)ethyl)-7-fluoro-1-methyl-2-oxo-1,2,3,4,5,6-hexahydrobenzo [b][1,4]diazocin-3-yl)amino)-6-methyl-4-(tri-fluoromethyl)-nicotinonitrile], the kinact/KI turned out to be 110000 M⁻¹ s⁻¹.
The same measure for `Cc1cc(C(F)(F)F)c(C#N)c(N[C@H]2CCN(CCOC3CN(C(=O)/C=C/CN(C)C)C3)c3ccccc3N(C)C2=O)n1` [Example 50, (S,E)-2-((6-(2-((1-(4-(Dimethylamino)but-2-enoyl)azetidin-3-yl)oxy)ethyl)-1-methyl-2-oxo-1,2,3,4,5,6-hexahydrobenzo[b][1,4]diazocin-3-yl)amino)-6-methyl-4-(trifluoromethyl)nicotinonitrile]: 110000 M⁻¹ s⁻¹; for `C=CC(=O)N1CC(OCCN2CC[C@H](Nc3nc(C)cc(C(F)(F)F)c3C#N)C(=O)N(C)c3ccccc32)C1` [Example 51, (S)-2-((6-(2-((1-Acryloylazetidin-3-yl)oxy)ethyl)-1-methyl-2-oxo-1,2,3,4,5,6-hexahydrobenzo[b][1,4]diazocin-3-yl)amino)-6-methyl-4-(trifluoromethyl)nicotinonitrile]: 70000 M⁻¹ s⁻¹; for `C=CC(=O)N1CC2(CC(CN3CC[C@H](Nc4nc(C)cc(C(F)(F)F)c4C#N)C(=O)N(C)c4ccccc43)C2)C1` [Example 52, (S)-2-((6-((2-Acryloyl-2-azaspiro[3.3]heptan-6-yl)methyl)-1-methyl-2-oxo-1,2,3,4,5,6-hexahydrobenzo[b][1,4]diazocin-3-yl)amino)-6-methyl-4-(trifluoromethyl)nicotinonitrile]: 150000 M⁻¹ s⁻¹.
The same measure for `C=CC(=O)N1CC(OCCCN2CC[C@H](Nc3nc(C)cc(C(F)(F)F)c3C#N)C(=O)N(C)c3ccccc32)C1` [Example 53, (S)-2-((6-(3-((1-Acryloylazetidin-3-yl)oxy)propyl)-1-methyl-2-oxo-1,2,3,4,5,6-hexahydrobenzo[b][1,4]diazocin-3-yl)amino)-6-methyl-4-(trifluoromethyl)nicotinonitrile]: 500000 M⁻¹ s⁻¹.
